{"source": "paper PMC10712729", "about": "“A Phase I Trial of the Dual MET Kinase/OCT-2 Inhibitor OMO-1 in Metastatic Solid Malignancies Including MET Exon 14 Mutated Lung Cancer” (The Oncologist, 2023)", "key": {"[1]": {"biological_target": "T1, OCT-2 (Homo sapiens, UniProt O15244)", "T1 construct": "from tissue; host or cells: patients in vivo (endogenous transporter; serum, plasma and urine markers measured)", "T1 sequence (O15244 1-555)": "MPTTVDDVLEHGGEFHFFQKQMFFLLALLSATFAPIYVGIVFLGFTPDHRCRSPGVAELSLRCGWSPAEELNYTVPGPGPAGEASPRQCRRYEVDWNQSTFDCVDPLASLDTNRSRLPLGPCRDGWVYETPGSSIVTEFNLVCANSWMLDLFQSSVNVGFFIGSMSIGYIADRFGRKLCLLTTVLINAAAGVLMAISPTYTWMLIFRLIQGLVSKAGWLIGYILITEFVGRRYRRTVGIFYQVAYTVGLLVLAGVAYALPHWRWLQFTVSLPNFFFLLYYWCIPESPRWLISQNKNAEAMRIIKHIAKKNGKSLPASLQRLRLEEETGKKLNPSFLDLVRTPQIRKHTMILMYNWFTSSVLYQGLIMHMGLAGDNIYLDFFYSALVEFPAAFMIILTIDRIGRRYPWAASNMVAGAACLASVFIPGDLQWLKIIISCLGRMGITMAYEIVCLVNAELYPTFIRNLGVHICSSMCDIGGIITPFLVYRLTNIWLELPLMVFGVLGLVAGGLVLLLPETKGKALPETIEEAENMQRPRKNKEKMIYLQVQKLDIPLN", "test": "Renal function markers (creatinine, Cystatin C, KIM1) as on-target OCT-2 inhibition", "assay_type": "in vivo", "experimental": "(§1) The starting dose was 100 mg BID."}, "[2]": {"system": "METex14-positive NSCLC", "test": "Preliminary efficacy by RECIST v1.1, Module 1 Part B cohort 1", "assay_type": "in vivo, human", "details": "OMO-1 monotherapy 200 or 250 mg BID", "experimental": "as §1\n(§2) Safety analyses were descriptive."}, "[3]": {"system": "MET amplified NSCLC or other MET positive solid tumors", "test": "Preliminary efficacy by RECIST v1.1, Module 1 Part B cohort 2 (MET basket)", "assay_type": "in vivo, human", "details": "5/5 patients, 200 or 250 mg BID", "experimental": "as §1, §2"}, "[4]": {"system": "EGFR mutated NSCLC with acquired MET amplification", "assay_type": "in vivo, human", "details": "one patient, 200 mg BID with EGFR TKI; led to interruption", "source_text": "Module 2 (OMO-1 in combination with EGFR TKI) investigated the preliminary efficacy of OMO-1 in patients with activating EGFR mutated NSCLC and an acquired MET amplification after EGFR TKI treatment."}, "[5]": {"test": "Phase I safety and tolerability of OMO-1 monotherapy, Module 1 Part A dose escalation (drug-related TEAEs, DLTs, RP2D)", "source_text": "This study was part of a modular, first-in-patient, openlabel multicenter study of OMO-1, administered orally, mono-therapy, and in combination with EGFR-TKI, in patients with locally advanced, unresectable, or metastatic solid malignancies (study protocol can be). […] Module 1 (OMO-1 monotherapy) consisted of Part A (dose escalation) and Part B (expansion cohorts). Part A assessed the safety and tolerability of ascending doses of OMO-1 given as monotherapy in unselected patients with locally advanced, unresectable, or metastatic malignancies and determined the recommended phase 2 dose (RP2D). Part B assessed the preliminary efficacy of the RP2D of OMO-1 in patients with METex14-positive NSCLC (cohort 1) and patients with MET amplified NSCLC or patients with other MET positive solid tumors, either METex14 or MET amplification (MET basket; cohort 2). The MET status of the tumor was assessed locally by site-specific guidelines. For MET exon 14 skipping mutations next generation sequencing (NGS) was used and for MET amplifications either NGS or fluorescence in situ hybridization (Supplementary 1). Prior treatment with a MET inhibitor was an exclusion criterion.\nOMO-1 was administered orally, twice daily (BID) with a minimal interval of 4-5 h with food in a continuous 21 day/cycle regimen until clinical progression or emergence of significant toxicity. The starting dose was 100 mg BID. The dose was escalated sequentially in cohorts of at least 3 patients using a standard 3 + 3 dose escalation design. […] During the monotherapy dose escalation Module 1 Part A, blood samples were collected for PK analysis throughout the study as per protocol (S1).\nThe dose-limiting toxicity (DLT) evaluation period was within the first cycle of treatment; although all events beyond this point were also reviewed at the time of dose escalation to ensure an OLED was chosen as RP2D.\nSafety analyses were descriptive. With respect to primary objectives and endpoints, no specific hypotheses were tested statistically. The primary focus was on determining the safety profile and RP2D, and the identification of a range of biologically active doses and PK of OMO-1 in patients with cancer. Safety, PK, and PD biomarker data were reviewed on an ongoing basis in line with the cohort progression criteria by the Safety Review Committee (SRC)."}}, "note": "Entries after “also recorded” stand apart in the source; their conditions may differ.", "data": [{"smiles": "FC(F)(c1ccc2ncccc2c1)c1nnc2ccc(-c3ccncc3)nn12", "note": "[OMO-1]", "values": [{"measurement": "cystatin C and KIM-1, additional markers for renal function", "setting": "[1]; monotherapy OMO-1", "value": "did also not identify any significant renal function issues"}, {"measurement": "overall mean creatinine levels", "setting": "[1]; throughout the study", "value": "within the normal ranges"}, {"measurement": "clinical benefit duration of at least 8 weeks", "setting": "[2]", "value": "5/10"}, {"measurement": "partial response", "setting": "[2]; RECIST v.1.1", "value": "No patients; also recorded: no partial response"}, {"measurement": "clinical benefit", "setting": "[3]", "value": "No clinical benefit of any length; also recorded: no clinical efficacy"}, {"measurement": "serum Cystatin C increase from baseline", "setting": "[4]", "value": "> 1.5", "unit": "fold"}, {"measurement": "increased blood creatinine, drug-related TEAE", "setting": "[5]; 100 mg BID cohort", "value": "no events"}, {"measurement": "Fatigue, proportion of patients", "setting": "[5]; 100 mg BID cohort, 1 patient", "value": 20.0, "unit": "%"}, {"measurement": "Decreased appetite, Drug-related TEAEs, All grades", "setting": "[5]; 100 mg BID n = 5", "value": "1 (20%) n (%)"}, {"measurement": "Dizziness, Drug-related TEAEs, All grades", "setting": "[5]; 100 mg BID n = 5", "value": "1 (20%) n (%)"}, {"measurement": "Fatigue, Drug-related TEAEs, All grades", "setting": "[5]; 100 mg BID n = 5", "value": "1 (20%) n (%)"}, {"measurement": "Headache, Drug-related TEAEs, All grades", "setting": "[5]; 100 mg BID n = 5", "value": "1 (20%) n (%)"}, {"measurement": "Nausea, Drug-related TEAEs, All grades", "setting": "[5]; 100 mg BID n = 5", "value": "2 (40%) n (%)"}, {"measurement": "Nausea, Drug-related TEAEs, Grade ≥3", "setting": "[5]; 100 mg BID n = 5", "value": "1 (20%) n (%)"}, {"measurement": "Nausea, Drug-related TEAEs, SAE", "setting": "[5]; 100 mg BID n = 5", "value": "1 (20%) n (%)"}, {"measurement": "Total n with AE, Drug-related TEAEs, All grades", "setting": "[5]; 100 mg BID n = 5", "value": "5 (100%) n (%)"}, {"measurement": "Total n with AE, Drug-related TEAEs, Grade ≥3", "setting": "[5]; 100 mg BID n = 5", "value": "2 (40%) n (%)"}, {"measurement": "Total n with AE, Drug-related TEAEs, SAE", "setting": "[5]; 100 mg BID n = 5", "value": "2 (40%) n (%)"}, {"measurement": "Vomiting, Drug-related TEAEs, All grades", "setting": "[5]; 100 mg BID n = 5", "value": "1 (20%) n (%)"}, {"measurement": "Vomiting, Drug-related TEAEs, Grade ≥3", "setting": "[5]; 100 mg BID n = 5", "value": "1 (20%) n (%)"}, {"measurement": "Vomiting, Drug-related TEAEs, SAE", "setting": "[5]; 100 mg BID n = 5", "value": "1 (20%) n (%)"}, {"measurement": "Anemia, Drug-related TEAEs, All grades", "setting": "[5]; 200 mg BID n = 4", "value": "2 (50%) n (%)"}, {"measurement": "Anemia, Drug-related TEAEs, Grade ≥3", "setting": "[5]; 200 mg BID n = 4", "value": "1 (25%) n (%)"}, {"measurement": "Blood creatinine ↑, Drug-related TEAEs, All grades", "setting": "[5]; 200 mg BID n = 4", "value": "3 (75%) n (%)"}, {"measurement": "Chills/ influenza like symptoms, Drug-related TEAEs, All grades", "setting": "[5]; 200 mg BID n = 4", "value": "1 (25%) n (%)"}, {"measurement": "Chills/ influenza like symptoms, Drug-related TEAEs, SAE", "setting": "[5]; 200 mg BID n = 4", "value": "1 (25%) n (%)"}, {"measurement": "Decreased appetite, Drug-related TEAEs, All grades", "setting": "[5]; 200 mg BID n = 4", "value": "1 (25%) n (%)"}, {"measurement": "Diarrhoea, Drug-related TEAEs, All grades", "setting": "[5]; 200 mg BID n = 4", "value": "2 (50%) n (%)"}, {"measurement": "Dizziness, Drug-related TEAEs, All grades", "setting": "[5]; 200 mg BID n = 4", "value": "1 (25%) n (%)"}, {"measurement": "Fatigue, Drug-related TEAEs, All grades", "setting": "[5]; 200 mg BID n = 4", "value": "1 (25%) n (%)"}, {"measurement": "Headache, Drug-related TEAEs, All grades", "setting": "[5]; 200 mg BID n = 4", "value": "3 (75%) n (%)"}, {"measurement": "Nausea, Drug-related TEAEs, All grades", "setting": "[5]; 200 mg BID n = 4", "value": "3 (75%) n (%)"}, {"measurement": "Total n with AE, Drug-related TEAEs, All grades", "setting": "[5]; 200 mg BID n = 4", "value": "4 (100%) n (%)"}, {"measurement": "Total n with AE, Drug-related TEAEs, Grade ≥3", "setting": "[5]; 200 mg BID n = 4", "value": "1 (25%) n (%)"}, {"measurement": "Total n with AE, Drug-related TEAEs, SAE", "setting": "[5]; 200 mg BID n = 4", "value": "1 (25%) n (%)"}, {"measurement": "Vomiting, Drug-related TEAEs, All grades", "setting": "[5]; 200 mg BID n = 4", "value": "2 (50%) n (%)"}, {"measurement": "Vomiting, Drug-related TEAEs, Grade ≥3", "setting": "[5]; 200 mg BID n = 4", "value": "1 (25%) n (%)"}, {"measurement": "diarrhea, all grades", "setting": "[5]; 250 mg BD", "value": 14, "unit": "%"}, {"measurement": "nausea, all grades", "setting": "[5]; 250 mg BD", "value": 57, "unit": "%"}, {"measurement": "vomiting, all grades", "setting": "[5]; 250 mg BD", "value": 43, "unit": "%"}, {"measurement": "Anemia, Drug-related TEAEs, All grades", "setting": "[5]; 250 mg BID n = 7", "value": "1 (14%) n (%)"}, {"measurement": "Blood creatinine ↑, Drug-related TEAEs, All grades", "setting": "[5]; 250 mg BID n = 7", "value": "3 (43%) n (%)"}, {"measurement": "Blood creatinine ↑, Drug-related TEAEs, Grade ≥3", "setting": "[5]; 250 mg BID n = 7", "value": "1 (14%) n (%)"}, {"measurement": "Decreased appetite, Drug-related TEAEs, All grades", "setting": "[5]; 250 mg BID n = 7", "value": "1 (14%) n (%)"}, {"measurement": "Diarrhoea, Drug-related TEAEs, All grades", "setting": "[5]; 250 mg BID n = 7", "value": "1 (14%) n (%)"}, {"measurement": "Dizziness, Drug-related TEAEs, All grades", "setting": "[5]; 250 mg BID n = 7", "value": "1 (14%) n (%)"}, {"measurement": "Fatigue, Drug-related TEAEs, All grades", "setting": "[5]; 250 mg BID n = 7", "value": "3 (43%) n (%)"}, {"measurement": "Fatigue, Drug-related TEAEs, Grade ≥3", "setting": "[5]; 250 mg BID n = 7", "value": "1 (14%) n (%)"}, {"measurement": "Nausea, Drug-related TEAEs, All grades", "setting": "[5]; 250 mg BID n = 7", "value": "4 (57%) n (%)"}, {"measurement": "Nausea, Drug-related TEAEs, SAE", "setting": "[5]; 250 mg BID n = 7", "value": "1 (14%) n (%)"}, {"measurement": "Tachycardia, Drug-related TEAEs, All grades", "setting": "[5]; 250 mg BID n = 7", "value": "1 (14%) n (%)"}, {"measurement": "Total n with AE, Drug-related TEAEs, All grades", "setting": "[5]; 250 mg BID n = 7", "value": "7 (100%) n (%)"}, {"measurement": "Total n with AE, Drug-related TEAEs, SAE", "setting": "[5]; 250 mg BID n = 7", "value": "1 (14%) n (%)"}, {"measurement": "Vomiting, Drug-related TEAEs, All grades", "setting": "[5]; 250 mg BID n = 7", "value": "3 (43%) n (%)"}, {"measurement": "patients discontinued due to related toxicity", "setting": "[5]; 350 mg BID and 400 mg BID cohort", "value": "4/8"}, {"measurement": "increased blood creatinine, drug-related TEAE", "setting": "[5]; 350 mg BID cohort", "value": "no events"}, {"measurement": "Chills/ influenza like symptoms, Drug-related TEAEs, All grades", "setting": "[5]; 350 mg BID n = 5", "value": "1 (20%) n (%)"}, {"measurement": "Decreased appetite, Drug-related TEAEs, All grades", "setting": "[5]; 350 mg BID n = 5", "value": "1 (20%) n (%)"}, {"measurement": "Dizziness, Drug-related TEAEs, All grades", "setting": "[5]; 350 mg BID n = 5", "value": "1 (20%) n (%)"}, {"measurement": "Fatigue, Drug-related TEAEs, All grades", "setting": "[5]; 350 mg BID n = 5", "value": "3 (60%) n (%)"}, {"measurement": "Headache, Drug-related TEAEs, All grades", "setting": "[5]; 350 mg BID n = 5", "value": "1 (20%) n (%)"}, {"measurement": "Nausea, Drug-related TEAEs, All grades", "setting": "[5]; 350 mg BID n = 5", "value": "1 (20%) n (%)"}, {"measurement": "Tachycardia, Drug-related TEAEs, All grades", "setting": "[5]; 350 mg BID n = 5", "value": "1 (20%) n (%)"}, {"measurement": "Total n with AE, Drug-related TEAEs, All grades", "setting": "[5]; 350 mg BID n = 5", "value": "4 (80%) n (%)"}]}]}
